This note sets out measurements from ChEMBL document CHEMBL5131545, “Targeting NOX2 via p47/phox-p22/phox Inhibition with Novel Triproline Mimetics” (ACS Med Chem Lett, 2022).

One may read the Kd as the concentration at which binding is half-saturated.

*1 amine or outer side, *2 acyl side, *3 side chain or, on linkers, in order; H or OH if unused. Where a SMILES comes first, the peptide text is derived from it. The star is where a group is joined. X1 = Clc1ccc(-c2cccc(N*)c2)cc1Cl; Suc = O=C(CCC(=O)[*:2])[*:1]; X2 = C(CC1CC1)N*

The assay concerns the target T1, Neutrophil cytosol factor 1 (Homo sapiens, UniProt P14598).
T1 sequence (P14598 whole entry): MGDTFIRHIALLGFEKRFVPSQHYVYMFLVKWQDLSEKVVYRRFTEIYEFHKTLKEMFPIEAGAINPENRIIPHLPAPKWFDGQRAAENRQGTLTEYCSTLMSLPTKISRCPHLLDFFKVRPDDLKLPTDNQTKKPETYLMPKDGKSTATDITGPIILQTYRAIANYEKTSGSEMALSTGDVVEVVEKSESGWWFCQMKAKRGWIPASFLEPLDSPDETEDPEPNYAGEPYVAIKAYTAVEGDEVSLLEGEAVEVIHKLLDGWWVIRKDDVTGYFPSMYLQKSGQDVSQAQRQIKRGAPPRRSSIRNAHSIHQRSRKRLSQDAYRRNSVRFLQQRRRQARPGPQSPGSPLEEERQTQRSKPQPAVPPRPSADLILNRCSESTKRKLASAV
The experiment in a line: Binding affinity to human N-terminal TEV cleavable 6His tagged p47phox (151-285 residues) assessed as dissociation […] constant by Surface plasmon resonance assay. (In general: In SPR one partner is held on a chip, and binding of the other changes the refractive index at the surface.)
With `N=C(N)NCCC[C@H](NC(=O)[C@@H]1CCCN1C(=O)[C@@H]1CCCN1C(=O)[C@@H]1CCCN1C(=O)CCC(=O)Nc1cccc(-c2ccc(Cl)c(Cl)c2)c1)C(=O)NCCC1CC1` ({X1-Suc}-PPPR-X2), the Kd was 43 nM. As for `N=C(N)NCC1CCN(C(=O)[C@@H]2CCCN2C(=O)[C@@H]2CCCN2C(=O)[C@@H]2CCCN2C(=O)CCC(=O)Nc2cccc(-c3cnco3)c2)CC1`, the figure is 5710 nM; as for `C[C@H](NC(=O)[C@@H]1CCCN1C(=O)[C@@H]1CCCN1C(=O)[C@H](CCCNC(=N)N)NC(=O)[C@@H]1CCCN1C(=O)[C@@H]1CCCN1C(=O)[C@@H]1CCCN1C(=O)[C@H](CC(N)=O)NC(=O)[C@H](CO)NC(=O)[C@@H]1CCCN1C(=O)[C@@H]1CCCN1)C(=O)O` (H-PPSNPPPRPPA-OH), 214 nM; as for `N=C(N)NCCC[C@H](NC(=O)[C@@H]1CCC[C@H]1[C@@H](O)[C@@H]1CCCN1C(=O)[C@@H]1CCCN1C(=O)CCC(=O)Nc1cccc(-c2ccc(Cl)c(Cl)c2)c1)C(=O)NCCC1CC1`, 312 nM. As for `N=C(N)NCCC[C@H](NC(=O)[C@@H]1CCCN1C(=O)[C@@H]1CCC[C@H]1[C@@H](O)[C@@H]1CCCN1C(=O)CCC(=O)Nc1cccc(-c2ccc(Cl)c(Cl)c2)c1)C(=O)NCCC1CC1`, the figure is more than 30000 nM.
